{"source": "patent US20130116263A1", "about": "“PAK INHIBITORS FOR THE TREATMENT OF CELL PROLIFERATIVE DISORDERS” (AFRAXIS, INC., priority 2011, published 2013)", "format_in_all_cases": "cell-based", "key": {"[1]": {"tested_on": "NCI-H520", "assay": "Growth inhibition in cancer cell lines (CellTiter-Glo), NCI-H520", "details": "NCI-H520, 72 hours exposure", "from_the_text": "(§1) Methodology: 60 cell lines (CCRF-CEM, HL-60(TB), K-562, MOLT-4, RPMI-8226, SR, A549, EKVX, HOP-62, HOP-92, NCI-H226, NCI-H23, NCI-H322M, NCI-H460, NCI-H522, COLO 205, HCC-2998, HCT-116, HCT-15, HT29, KM12, SW-620, SF-268, SF-295, SF-539, SNB-19, SNB-75, U251, LOX IMV1, MALME-3M, M14, SK-MEL-2, SK− MEL-28, SK-MEL-5, UACC-257, UACC-62, IGR-OV 1, OVCAR-3, OVCAR-4, OVCAR-5, OVCAR-8, SK-OV-3, 786-0, A498, ACHN, CAKI-1, RXF 393, SN12C, TK-10, UO-31, PC-3, DU-145, MCF7, NCI/ADR-RES, MDA-MB-231, HS 578T, MDA-MB-435, MDA-MB-468, BT-549, and T-47D) are grown in RPMI-1640 medium with 10% FBS. Stock solutions of a test compound are prepared in DMSO. Concentrations of from about 0.001 μM to about 20 μM of each compound in RPM-1640 media are prepared. The test compound is added to wells containing 50 μL of cells and medium. A CellTiter-Glo (CTG) assay is carried out on the 0 hr plate to obtain a 0 hr count. Cells are exposed to the test compound for 72 hours. Following the exposure period, the plates are assayed using CTG. Luminescence is recorded on Synergy.\n(§2) As a non-limiting example, Compound 30 as described herein was tested for growth inhibition against various cancer cell lines."}, "[2]": {"tested_on": "OVCAR-3", "assay": "Growth inhibition in cancer cell lines (CellTiter-Glo), OVCAR-3", "details": "OVCAR-3, 72 hours exposure", "from_the_text": "as §1, §2"}, "[3]": {"tested_on": "SKOV-3", "assay": "Growth inhibition in cancer cell lines (CellTiter-Glo), SKOV-3", "details": "Homo sapiens, SK-OV-3; SKOV-3, 72 hours exposure", "from_the_text": "as §1, §2"}, "[4]": {"tested_on": "EBC-1", "assay": "Growth inhibition in cancer cell lines (CellTiter-Glo), EBC-1", "details": "EBC-1, 72 hours exposure"}, "[5]": {"tested_on": "OVCAR-4", "assay": "Growth inhibition in cancer cell lines (CellTiter-Glo), OVCAR-4", "details": "OVCAR-4, 72 hours exposure", "from_the_text": "as §1, §2"}, "[6]": {"tested_on": "IGROV-1", "assay": "Growth inhibition in cancer cell lines (CellTiter-Glo), IGROV-1", "details": "IGROV-1, 72 hours exposure", "from_the_text": "as §1, §2"}, "[7]": {"tested_on": "SK-MES-1", "assay": "Growth inhibition in cancer cell lines (CellTiter-Glo), SK-MES-1", "details": "SK-MES-1, 72 hours exposure"}}}
{"molecule": "CCn1c(=O)c(-c2ccc(-c3nccnc3C)cc2Cl)cc2cnc(NC3CCOC(C)(C)C3)nc21", "note": "(stereo not shown) [Compound 30]", "values": [{"measurement": "GI50", "setting": "[1]; Homo sapiens", "value": 6, "unit": "µM"}, {"measurement": "Maximum Inhibition", "setting": "[1]", "value": "−17", "unit": "%"}, {"measurement": "GI50", "setting": "[2]; Homo sapiens", "value": 3.1, "unit": "µM"}, {"measurement": "Maximum Inhibition", "setting": "[2]", "value": "−20", "unit": "%"}, {"measurement": "GI50", "setting": "[3]", "value": 3.8, "unit": "µM"}, {"measurement": "Maximum Inhibition", "setting": "[4]", "value": "−13", "unit": "%"}, {"measurement": "GI50", "setting": "[4]; Homo sapiens", "value": 3.5, "unit": "µM"}, {"measurement": "GI50", "setting": "[5]; Homo sapiens", "value": 2.6, "unit": "µM"}, {"measurement": "Maximum Inhibition", "setting": "[5]", "value": "−50", "unit": "%"}, {"measurement": "GI50", "setting": "[6]; Homo sapiens", "value": 0.33, "unit": "µM"}, {"measurement": "Maximum Inhibition", "setting": "[6]", "value": "−50", "unit": "%"}, {"measurement": "GI50", "setting": "[7]; Homo sapiens", "value": 3.8, "unit": "µM"}, {"measurement": "Maximum Inhibition", "setting": "[7]", "value": "−14", "unit": "%"}]}
